Read-outs that look alike come from different tables or passages of the source. Marks after values point to notes of the source that are not given here.
How the values were obtained:
[1] = tested on: human foreskin fibroblasts (HFF); assay: MTT antiproliferative assay, HFF; format: cell-based; conditions: read-out: Effect against cell viability (IC50), HFF
Procedure: (§1) All newly synthesized acridinyl derivatives (4–6) were screened for their anticancer activities in comparison to the reference compounds, 5-FU and cis-platinum. Compounds 4–6 were tested for their in vitro antitumor activities against HFF, MGC-803, BEL-7404, NCI-H460, and T24 tumor cell lines, and human normal liver cells (LO2), and the results are shown in Table 1. Most of the compounds had strong selective potency against MGC-803 and T24 cancer cells. […] In the T24 cell line assay, many compounds, especially the series of compound 4, had significant activity against T24. This implies that there is a significant increase in potency after the introduction of the aroyl thiourea group. […] To our delight, most 1,2,4-triazolethiones (5) and 1,2,4-thiadiazoles (6) have low toxicity to LO2 compared with the positive control.
(§2) Test samples, including compounds 4–6 and commercial classical anticancer drugs (5-FU and cis-platinum), were screened for their anti-cancer activity against HFF human foreskin fibroblast cells, MGC-803 human gastric cancer cells, BEL-7404 human hepatocellular carcinoma cells, NCI-H460 human large cell carcinoma cells, and T24 human bladder carcinoma cells using the 3-(4,5-dimethylthiazol-2-yl)-2,5-diphenyltetrazoliumbromide (MTT) assay method cited in the literature. The initial concentration of all the test samples was 100 μg/mL, which was serially diluted in complete medium with ten-fold dilutions to give six concentrations per compound. Their cytotoxicity was determined in 96-well flat bottomed microtiter plates. All the test samples were tested in triplicate. The results were expressed as the drug concentration that inhibited cell growth by 50% as compared to the controls (IC50). The IC50 values were calculated from regression lines obtained from the percent cell growth inhibition plotted as a function of the logarithm of the dose.

[2] = tested on: human gastric cancer cells-803 (MGC-803); assay: MTT antiproliferative assay, MGC-803; format: cell-based; conditions: read-out: Effect against cell viability (IC50), MGC-803
Procedure: as §1, §2

[3] = tested on: hepatocellular carcinoma bel-7404 (BEL-7404); assay: MTT antiproliferative assay, BEL-7404; format: cell-based, human; conditions: read-out: Effect against cell viability (IC50), BEL-7404
Procedure: as §1, §2

[4] = tested on: large cell lung cancer cells (NCI-H460); assay: MTT antiproliferative assay, NCI-H460; format: cell-based, human; conditions: read-out: Effect against cell viability (IC50), NCI-H460
Procedure: as §1, §2

[5] = tested on: bladder cancer cells (T24); assay: MTT antiproliferative assay, T24; format: cell-based, human; conditions: read-out: Effect against cell viability (IC50), T24
Procedure: as §1, §2

[6] = tested on: human normal liver cells (LO2); assay: Cytotoxicity against normal liver cells LO2; format: cell-based; conditions: MTT, read-out: Effect against cell viability (IC50), LO2
Procedure: as §1, §2

[7] = tested on: zebrafish embryos; parameters: mortality rate of zebrafish embryos: dose or concentration left out as unconfirmed; conditions: for MAR (malformation rate) / MOR (mortality rate): zebrafish embryos 72 hpf; for total mortality and malformation rate: zebrafish embryos
Procedure: In this experiment, 2% DMSO was used to dissolve the target products, and the abnormal rate (MAR) and mortality rate (MOR) of zebrafish embryos (72 hpf) were used for statistics.
The zebrafish embryos were collected at 6 hpf and randomly divided into naive control (embryos maintained in distilled water), vehicle control (embryos treated with 2% DMSO), and drug groups. Stock solutions of all drugs were prepared in 2% DMSO as a solubilizing agent and diluted to three concentrations (0.5 mg/mL, 1 mg/mL, and 2 mg/mL). Each group had 20 embryos per test concentration. […] Each compound was evaluated in three independent biological experiments.

Compound | IC50 ([1]; Homo sapiens, Fibroblast) [µM] | IC50 ([2]; Homo sapiens, MGC-803, MTT) [µM] | IC50 ([3]; Homo sapiens) [µM] | IC50 ([4]; Homo sapiens) [µM] | IC50 ([5]; Homo sapiens) [µM] | IC50 ([6]; Homo sapiens) [µM] | melting point [°C] | IC50 [1] [µM] | IC50 ([2]; MTT) [µM] | IC50 [3] [µM] | IC50 [4] [µM] | IC50 [5] [µM] | IC50 [6] [µM] | MAR (malformation rate) ([7]; 1 mg/mL) | MOR (mortality rate) ([7]; 1 mg/mL) | MAR (malformation rate) ([7]; 1.5 mg/mL) | MOR (mortality rate) ([7]; 1.5 mg/mL) | MAR (malformation rate) ([7]; 2 mg/mL) | MOR (mortality rate) ([7]; 2 mg/mL) | also measured
Cc1ccc2nc3ccccc3c(-n3c(-c4ccc([N+](=O)[O-])cc4)n[nH]c3=S)c2c1 [5i, 4-(2-methylacridin-9-yl)-5-(4-nitrophenyl)-2,4-dihydro-3H-1,2,4-triazole-3-thione] | 70.9 ± 2.99 | 8.92 ± 0.99 | 31.7 ± 2.36 | 28.3 ± 1.32 | 14.3 ± 1.27 | > 100 | 245 to 247 |  |  |  |  |  |  |  |  |  |  |  |  | 
Cc1ccc2nc3ccccc3c(NC(=S)NNC(=O)c3ccc([N+](=O)[O-])cc3)c2c1 [4i, 1-2′-methyl acridinyl-3-4’-nitro benzoyl thiosemicarbazides] |  |  |  |  |  |  |  | 60.7 ± 2.31 | 22.3 ± 1.35 | 23.3 ± 1.33 | 60.4 ± 2.95 | 9.89 ± 1.45 | 11.8 ± 1.38 |  |  |  |  |  |  | 
COC1=CC2C(=Nc3nnc(-c4ccccc4)s3)c3ccccc3NC2C=C1 (stereo not shown) [6b, 7-methoxy-N-(5-phenyl-1,3,4-thiadiazol-2-yl)-10,10a-dihydroacridin-9(8aH)-imine] | 79.3 ± 2.48 | 23.3 ± 1.97 | 32.3 ± 2.82 | 47.5 ± 3.51 | 49.4 ± 4.59 | > 100 | 263 to 265 |  |  |  |  |  |  |  |  |  |  |  |  | 
COC1=CC2C(=Nc3nnc(-c4ccc(Cl)cc4)s3)c3ccccc3NC2C=C1 (stereo not shown) [6e, 7-methoxy-N-(5-(4-chlorophenyl)-1,3,4-thiadiazol-2-yl)-10,10a-dihydroacridin-9(8aH)-imine] | 44.7 ± 1.44 | 9.95 ± 1.03 | 21.3 ± 2.81 | 27.9 ± 3.97 | 14.9 ± 1.3 | 33.6 ± 2.01 |  |  | 9.01 ± 1.32 |  |  |  |  | 10% ^c | 10% ^c | 70% ^c | 30% ^c | 35% ^c | 65% ^c | 
O=c1[nH]cc(F)c(=O)[nH]1 [5-FU, 5-fluorouracil, reference compound] | 25.4 ± 1.27 | 30.4 ± 2.87 | 34.5 ± 1.18 | 44 ± 0.54 | 32 ± 1.23 | 40.1 ± 1.65 |  |  |  |  |  |  |  |  |  |  |  |  |  | 
Cc1ccc2nc3ccccc3c(-n3c(-c4ccncc4)n[nH]c3=S)c2c1 [5f, 4-(2-methylacridin-9-yl)-5-(pyridin-4-yl)-2,4-dihydro-3H-1,2,4-triazole-3-thione] | 69.2 ± 2.16 | 15.2 ± 1.08 | 44.2 ± 2.68 | 58.8 ± 3.22 | 15.7 ± 1.58 | 46.8 ± 2.93 | 264 to 268 |  |  |  |  |  |  |  |  |  |  |  |  | 
CC1=CC2C(=Nc3nnc(-c4ccc([N+](=O)[O-])cc4)s3)c3ccccc3NC2C=C1 (stereo not shown) [6i, 7-methyl-N-(5-(4-nitrophenyl)-1,3,4-thiadiazol-2-yl)-10,10a-dihydroacridin-9(8aH)-imine] | 92 ± 2.99 | 22.9 ± 1.85 | 43.7 ± 2.36 | 36.4 ± 3.15 | 29.9 ± 2.45 | > 100 |  |  |  |  |  |  |  | 0% | 0% | 10% ^b | 0% | 25% ^c | 0% | mortality rate of zebrafish embryos [7]: 0%; malformation rate of zebrafish embryos ([7]; 2.0 mg.L^−1): 25%
Cc1ccc2nc3ccccc3c(NC(=S)NNC(=O)c3ccccc3)c2c1 [4g, 1-2′-methyl acridinyl-3-benzoyl thiosemicarbazides] |  |  |  |  |  |  |  | 70.1 ± 3.97 | 13.5 ± 1.59 | 20.2 ± 4.13 | 39 ± 2.05 | 25.8 ± 1.51 | 14.3 ± 1.52 |  |  |  |  |  |  | 
Cc1ccc2nc3ccccc3c(NC(=S)NNC(=O)c3ccc(Cl)cc3)c2c1 [4j, 1-2′-methyl acridinyl-3-4′-chloro benzoyl thiosemicarbazides] |  |  |  |  |  |  |  | 61.5 ± 1.85 | 16.4 ± 1.56 | 24.4 ± 3.53 | 32.2 ± 2.36 | 19.9 ± 1.32 | 20.5 ± 1.39 |  |  |  |  |  |  | 
COc1ccc2nc3ccccc3c(-n3c(-c4ccccc4)n[nH]c3=S)c2c1 [5b, 4-(2-methoxyacridin-9-yl)-5-phenyl-2,4-dihydro-3H-1,2,4-triazole-3-thione] | 53.6 ± 2.78 | 15.8 ± 1.94 | 27.7 ± 2.97 | 42.1 ± 3.74 | 22.1 ± 1.85 | 58.3 ± 3.25 | 259 to 261 |  |  |  |  |  |  |  |  |  |  |  |  | 
COc1ccc2nc3ccccc3c(NC(=S)NNC(=O)c3ccccc3)c2c1 [4b, 1-2′-methoxyl acridinyl-3-benzoyl thiosemicarbazides] |  |  |  |  |  |  |  | 72.6 ± 3.57 | 14.5 ± 2.06 | 25.8 ± 2.83 | 42.3 ± 2.15 | 29.8 ± 2.85 | 34.4 ± 2.05 | 70% ^a | 15% ^a | 70% ^a | 15% ^a | 55% ^a | 40% ^a | total mortality and malformation rate ([7]; 2.0 mg.L^−1): 100%
COC1=CC2C(=Nc3nnc(-c4ccncc4)s3)c3ccccc3NC2C=C1 (stereo not shown) [6a, 7-methoxy-N-(5-(pyridin-4-yl)-1,3,4-thiadiazol-2-yl)-10,10a-dihydroacridin-9(8aH)-imine] | 68.8 ± 1.87 | 14.3 ± 1.29 | 19.2 ± 1.3 | 25.3 ± 3.57 | 10.2 ± 0.96 | 40.2 ± 2.74 |  |  |  |  |  |  |  | 15% ^b | 0% | 95% ^b | 0% | 90% ^b | 5% ^b | 
COC1=CC2C(=Nc3nnc(-c4ccc([N+](=O)[O-])cc4)s3)c3ccccc3NC2C=C1 (stereo not shown) [6d, 7-methoxy-N-(5-(4-nitrophenyl)-1,3,4-thiadiazol-2-yl)-10,10a-dihydroacridin-9(8aH)-imine] | > 100 | 26.7 ± 3.35 | > 100 | > 100 | > 100 | > 100 | 258 to 260 |  |  |  |  |  |  |  |  |  |  |  |  | 
COc1ccc(C(=O)NNC(=S)Nc2c3ccccc3nc3ccc(OC)cc23)cc1 [4c, 1-2′-methoxyl acridinyl-3-4′-methoxy benzoyl thiosemicarbazides] |  |  |  |  |  |  |  | 63.7 ± 2.59 | 21 ± 1.55 | 13.3 ± 1.37 | 52.4 ± 3.67 | 11.2 ± 2.51 | 19.4 ± 1.69 | 50% ^a | 45% ^a | 60% ^a | 25% ^a | 50% ^a | 35% ^a | 
Cc1ccc2nc3ccccc3c(-n3c(-c4ccccc4)n[nH]c3=S)c2c1 [5g, 4-(2-methylacridin-9-yl)-5-phenyl-2,4-dihydro-3H-1,2,4-triazole-3-thione] | 68.3 ± 2.74 |  | 20.5 ± 1.13 | 30.6 ± 2.21 | 19.4 ± 2.17 | 44.6 ± 2.35 | 292 to 293 |  |  |  |  |  |  |  |  |  |  |  |  | 
COc1ccc2nc3ccccc3c(NC(=S)NNC(=O)c3ccc([N+](=O)[O-])cc3)c2c1 [4d, 1-2’-methoxyl acridinyl-3-4′-nitro benzoyl thiosemicarbazides] |  |  |  |  |  |  |  | 65.3 ± 3.82 | 35 ± 3.57 | 43.9 ± 2.59 | 40.5 ± 4.52 | 13 ± 1.64 | 25.1 ± 1.33 |  |  |  |  |  |  | 
Cc1ccc2[nH]c3ccccc3c(=NC(=S)NNC(=O)c3ccncc3)c2c1 [4f, 1-2′-methyl acridinyl-3-4′-pyridinamide thiourea] |  |  |  |  |  |  |  | 55.2 ± 1.36 | 11.2 ± 0.96 | 34.4 ± 2.24 | 53.7 ± 3.04 | 9.66 ± 1.54 | 10.1 ± 0.96 | 60% ^b | 10% ^b | 80% ^b | 20% ^b | 15% ^b | 85% ^b | total mortality and malformation rate ([7]; 2.0 mg.L^−1): 100%
N.N.[Cl][Pt][Cl] [cis-platinum, reference compound] |  |  |  |  |  |  |  | 10.8 ± 0.34 | 16 ± 1.53 | 10 ± 0.52 | 7.13 ± 1.24 | 9.13 ± 1.54 | 21.4 ± 1.25 |  |  |  |  |  |  | 

From publication PMC9820444, “Design and Synthesis of Acridine-Triazole and Acridine-Thiadiazole Derivatives and Their Inhibitory Effect against Cancer Cells” (International Journal of Molecular Sciences, 2022)
